Legend:
Assay in all cases: combination Emax (second highest fraction inhibited in the dose matrix, 72 h); higher = more inhibition; extreme values may be limits of the assay
SF268 (Low Grade Glioma) = system: SF268 (Low Grade Glioma)
Method in brief: (§1)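 After 24 hours at 37°C and 5% CO2 in 1536-well plates, cells in DMEM/F12 or RPMI plus 10% FBS received two-drug dose matrices for 72 hours. Viability came from CellTiter-Glo 2.0 luminescence and was scaled as inhibition, anchored at 0 by vehicle wells and at 1 by blank wells. Combination Emax is taken as the second-highest inhibition in the matrix, and Bliss excess as the observed combination effect less EA + EB − EA·EB, with EA and EB the single-agent effects.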

[1] = system: PSN1 (Pancreatic Carcinoma)
Method in brief: as §1

[2] = system: FADU (Head and Neck Carcinoma)
Method in brief: as §1

[3] = system: 23132-87 (Gastric Carcinoma)
Method in brief: as §1

[4] = system: RERF-GC-1B (Gastric Carcinoma)
Method in brief: as §1

[5] = system: PC-3_[JPC-3] (Lung Adenocarcinoma)
Method in brief: as §1

[6] = system: MFE-280 (Endometrial Carcinoma)
Method in brief: as §1

[7] = system: VAL (B-Cell Non-Hodgkin's Lymphoma)
Method in brief: as §1

[8] = system: RCM-1 (Colorectal Carcinoma)
Method in brief: as §1

[9] = system: LK-2 (Squamous Cell Lung Carcinoma)
Method in brief: as §1

[10] = system: RERF-LC-Sq1 (Squamous Cell Lung Carcinoma)
Method in brief: as §1

[11] = system: CAL-120 (Breast Carcinoma)
Method in brief: as §1

[12] = system: KE-37 (T-Lymphoblastic Leukemia)
Method in brief: as §1

[13] = system: HSC-39 (Gastric Carcinoma)
Method in brief: as §1

IST-MES1 (Mesothelioma) = system: IST-MES1 (Mesothelioma)
Method in brief: as §1

[14] = system: GP5d (Colorectal Carcinoma)
Method in brief: as §1

[15] = system: REH (B-Lymphoblastic Leukemia)
Method in brief: as §1

[16] = system: MKN45 (Gastric Carcinoma)
Method in brief: as §1

[17] = system: HEC-1 (Endometrial Carcinoma)
Method in brief: as §1

[18] = system: NCI-H2342 (Lung Adenocarcinoma)
Method in brief: as §1

SMILES: COc1cccc(OCCCN)c1-c1cc(Nc2cnc(C#N)cn2)n[nH]1 [Prexasertib] + C=CCn1c(=O)c2cnc(Nc3ccc(N4CCN(C)CC4)cc3)nc2n1-c1cccc(C(C)(C)O)n1 [AZD1775] (first compound max 1 µM, partner max 1 µM)
- combination Emax (SF268 (Low Grade Glioma)): 0.561
- combination Emax [1]: 0.781
- combination Emax [2]: 0.914
- combination Emax [3]: 0.939
- combination Emax [4]: 0.887
- combination Emax [5]: 0.588
- combination Emax [6]: 0.739
- combination Emax [7]: 0.921
- combination Emax [8]: 0.822
- combination Emax [9]: 0.92
- combination Emax [10]: 0.906
- combination Emax [11]: 0.685
- combination Emax [12]: 1
- combination Emax [13]: 1
- combination Emax (IST-MES1 (Mesothelioma)): 0.609
- combination Emax [14]: 1
- combination Emax [15]: 1
- combination Emax [16]: 0.865
- combination Emax [17]: 0.715
- combination Emax [18]: 0.415

SMILES: CC1(C)CCC(CN2CCN(c3ccc(C(=O)NS(=O)(=O)c4ccc(NCC5CCOCC5)c([N+](=O)[O-])c4)c(Oc4cnc5[nH]ccc5c4)c3)CC2)=C(c2ccc(Cl)cc2)C1 [Venetoclax] + C[C@@H](Nc1cc(F)cc(F)c1)c1cc(C(=O)N(C)C)cc2c(=O)cc(N3CCOCC3)oc12 [AZD8186] (first compound max 1 µM, 7x7, partner max 3 µM)
- combination Emax (SF268 (Low Grade Glioma)): 0.127
- combination Emax [1]: 0.313
- combination Emax [2]: 0.128
- combination Emax [3]: 0.0687
- combination Emax [4]: 0.103
- combination Emax [5]: 0.298
- combination Emax [6]: 0.371
- combination Emax [7]: 1
- combination Emax [8]: 0.28
- combination Emax [9]: 0.0674
- combination Emax [10]: 0.121
- combination Emax [11]: 0.12
- combination Emax [12]: 0.356
- combination Emax [13]: 0.972
- combination Emax (IST-MES1 (Mesothelioma)): 0.176
- combination Emax [14]: 0.228
- combination Emax [15]: 0.96
- combination Emax [16]: 0.602
- combination Emax [17]: 0.0634
- combination Emax [18]: 0.265

SMILES: CC1(C)CCC(CN2CCN(c3ccc(C(=O)NS(=O)(=O)c4ccc(NCC5CCOCC5)c([N+](=O)[O-])c4)c(Oc4cnc5[nH]ccc5c4)c3)CC2)=C(c2ccc(Cl)cc2)C1 [Venetoclax] + C=CCn1c(=O)c2cnc(Nc3ccc(N4CCN(C)CC4)cc3)nc2n1-c1cccc(C(C)(C)O)n1 [AZD1775] (first compound max 1 µM, partner max 1 µM)
- combination Emax (SF268 (Low Grade Glioma)): 0.524
- combination Emax [1]: 0.391
- combination Emax [2]: 0.491
- combination Emax [3]: 0.36
- combination Emax [4]: 0.753
- combination Emax [5]: 0.427
- combination Emax [6]: 0.621
- combination Emax [7]: 1
- combination Emax [8]: 0.698
- combination Emax [9]: 0.932
- combination Emax [10]: 0.586
- combination Emax [11]: 0.31
- combination Emax [12]: 1
- combination Emax [13]: 1
- combination Emax (IST-MES1 (Mesothelioma)): 0.254
- combination Emax [14]: 0.795
- combination Emax [15]: 1
- combination Emax [16]: 0.765
- combination Emax [17]: 0.182
- combination Emax [18]: 0.268

SMILES: NC1(C(=O)N[C@@H](CCO)c2ccc(Cl)cc2)CCN(c2ncnc3[nH]ccc23)CC1 [Capivasertib] + COc1nnc2ccc(N3CCC(c4ccc(OCCN5CCN(C)C(=O)[C@H]5C)cc4)CC3)nn12 [AZD5153] (first compound max 10 µM, 7x7, partner max 1 µM)
- combination Emax (SF268 (Low Grade Glioma)): 0.488
- combination Emax [1]: 0.256
- combination Emax [2]: 0.65
- combination Emax [3]: 0.659
- combination Emax [4]: 0.617
- combination Emax [5]: 0.349
- combination Emax [6]: 0.608
- combination Emax [7]: 0.806
- combination Emax [8]: 0.613
- combination Emax [9]: 0.422
- combination Emax [10]: 1
- combination Emax [11]: 0.647
- combination Emax [12]: 0.905
- combination Emax [13]: 0.916
- combination Emax (IST-MES1 (Mesothelioma)): 0.45
- combination Emax [14]: 0.873
- combination Emax [15]: 0.987
- combination Emax [16]: 0.58
- combination Emax [17]: 0.688
- combination Emax [18]: 0.46

SMILES: COc1cccc(OCCCN)c1-c1cc(Nc2cnc(C#N)cn2)n[nH]1 [Prexasertib] + C[C@@H]1COCCN1C2=NC(=NC(=C2)C3(CC3)[S@](=N)(=O)C)C4=C5C=CNC5=NC=C4 [AZD6738] (first compound max 1 µM, 7x7, partner max 10 µM)
- combination Emax (SF268 (Low Grade Glioma)): 0.514
- combination Emax [1]: 0.536
- combination Emax [2]: 0.918
- combination Emax [3]: 0.908
- combination Emax [4]: 0.543
- combination Emax [5]: 0.426
- combination Emax [6]: 0.398
- combination Emax [7]: 0.952
- combination Emax [8]: 0.862
- combination Emax [9]: 0.689
- combination Emax [10]: 0.899
- combination Emax [11]: 0.446
- combination Emax [12]: 1
- combination Emax [13]: 1
- combination Emax (IST-MES1 (Mesothelioma)): 0.278
- combination Emax [14]: 0.967
- combination Emax [15]: 1
- combination Emax [16]: 0.822
- combination Emax [17]: 0.74
- combination Emax [18]: 0.294

SMILES: Cc1c2c(nn1C)CSCc1cc(n(C)n1)CSc1cc(c3ccccc3c1)OCCCc1c(C(=O)O)n(C)c3c-2c(Cl)ccc13 [AZD5991] + CC1(C)CCC(CN2CCN(c3ccc(C(=O)NS(=O)(=O)c4ccc(NCC5CCOCC5)c([N+](=O)[O-])c4)c(Oc4cnc5[nH]ccc5c4)c3)CC2)=C(c2ccc(Cl)cc2)C1 [Venetoclax] (first compound max 1 µM, 7x7, partner max 1 µM)
- combination Emax (SF268 (Low Grade Glioma)): 0.248
- combination Emax [1]: 0.145
- combination Emax [2]: 0.946
- combination Emax [3]: 0.903
- combination Emax [4]: 1
- combination Emax [5]: 0.254
- combination Emax [6]: 0.193
- combination Emax [7]: 1
- combination Emax [8]: 0.171
- combination Emax [9]: 0.302
- combination Emax [10]: 0.282
- combination Emax [11]: 0.121
- combination Emax [12]: 0.987
- combination Emax [13]: 1
- combination Emax (IST-MES1 (Mesothelioma)): 0.116
- combination Emax [14]: 0.928
- combination Emax [15]: 1
- combination Emax [16]: 0.168
- combination Emax [17]: 0.173
- combination Emax [18]: 0.262
